Reference: US6656932B2, “Benzo thiadiazine matrix metalloproteinase inhibitors” (Warner-Lambert Company, priority 2001, dated 2003)

Legend:
Type in all cases: biochemical
[1] = molecular target: T1, MMP-1FL (full-length interstitial collagenase) (Homo sapiens, UniProt P03956); experiment: Thiopeptolide hydrolysis assay, MMP-1FL; details: Table 2; thiopeptolide substrate, HEPES pH 7.0; read-out: IC50 (μM) Versus Certain MMPs: MMP01 (FL)
T1 sequence (P03956 100-469): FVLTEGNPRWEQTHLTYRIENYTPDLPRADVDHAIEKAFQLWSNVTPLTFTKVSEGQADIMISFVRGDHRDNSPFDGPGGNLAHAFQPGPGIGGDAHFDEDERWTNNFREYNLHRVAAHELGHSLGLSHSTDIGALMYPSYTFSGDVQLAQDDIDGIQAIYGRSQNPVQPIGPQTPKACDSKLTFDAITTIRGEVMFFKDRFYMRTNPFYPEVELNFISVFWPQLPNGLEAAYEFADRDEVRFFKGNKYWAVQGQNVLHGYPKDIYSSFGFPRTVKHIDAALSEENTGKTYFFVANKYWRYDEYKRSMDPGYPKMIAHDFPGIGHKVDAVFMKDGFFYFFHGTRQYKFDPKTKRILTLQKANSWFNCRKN
Source text: (§1) The invention compounds of Formula I have been evaluated in standard assays for their ability to inhibit the catalytic activity of various MMP enzymes.
(§2) Thiopeptolide substrates show virtually no decomposition or hydrolysis at or below neutral pH in the absence of a matrix metalloproteinase enzyme.
(§3) Several representative compounds have been evaluated for their ability to inhibit various matrix metalloproteinase enzymes.

[2] = molecular target: MMP-3CD (catalytic domain of stromelysin-1) (Homo sapiens, UniProt P08254); experiment: Thiopeptolide hydrolysis assay, MMP-3CD; details: Table 2; thiopeptolide substrate, MES buffer pH 6.0; read-out: IC50 (μM) Versus Certain MMPs: MMP03 (CD)
Method: as §1, §2, §3
It should be appreciated that the assay buffer used with MMP-3CD was 50 mM of N-morpholinoethane sulfonate (“MES”) at pH 6.0 rather than the HEPES buffer at pH 7.0 described above.

[3] = molecular target: T2, MMP-7FL (full-length matrilysin) (Homo sapiens, UniProt P09237); experiment: Thiopeptolide hydrolysis assay, MMP-7FL; details: Table 2; thiopeptolide substrate, HEPES pH 7.0; read-out: IC50 (μM) Versus Certain MMPs: MMP07 (FL)
T2 sequence (P09237 95-267): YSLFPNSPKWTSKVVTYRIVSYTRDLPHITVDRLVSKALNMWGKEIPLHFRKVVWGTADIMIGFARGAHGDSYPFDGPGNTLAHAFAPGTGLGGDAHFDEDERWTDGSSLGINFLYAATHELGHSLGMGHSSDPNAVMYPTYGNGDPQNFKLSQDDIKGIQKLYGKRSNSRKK
Source text: as §1, §2, §3

[4] = molecular target: MMP-9FL (full-length Gelatinase B) (Homo sapiens, UniProt P14780); experiment: Thiopeptolide hydrolysis assay, MMP-9FL; details: Table 2; thiopeptolide substrate, HEPES pH 7.0; read-out: IC50 (μM) Versus Certain MMPs: MMP09 (FL)
Source text: as §1, §2, §3

[5] = molecular target: MMP-13CD (catalytic domain of collagenase 3) (Homo sapiens, UniProt P45452); experiment: Thiopeptolide hydrolysis assay, MMP-13CD; details: Table 2; thiopeptolide substrate, HEPES pH 7.0; read-out: IC50 (μM) Versus Certain MMPs: MMP13 (CD)
Source text: as §1, §2, §3

[6] = molecular target: MMP-14CD (catalytic domain of MMP-14) (Homo sapiens, UniProt P50281); experiment: Thiopeptolide hydrolysis assay, MMP-14CD; details: Table 2; thiopeptolide substrate, HEPES pH 7.0; read-out: IC50 (μM) Versus Certain MMPs: MMP14 (CD)
Source text: as §1, §2, §3

Chain of MMP-3CD (catalytic domain of stromelysin-1) (P08254 100-272 limits assumed): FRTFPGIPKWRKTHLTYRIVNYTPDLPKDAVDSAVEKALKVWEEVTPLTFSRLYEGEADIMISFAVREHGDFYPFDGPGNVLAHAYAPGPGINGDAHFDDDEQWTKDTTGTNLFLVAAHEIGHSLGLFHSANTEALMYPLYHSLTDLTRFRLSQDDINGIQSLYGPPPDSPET
Chain of MMP-9FL (full-length Gelatinase B) (P14780 94-707, species assumed): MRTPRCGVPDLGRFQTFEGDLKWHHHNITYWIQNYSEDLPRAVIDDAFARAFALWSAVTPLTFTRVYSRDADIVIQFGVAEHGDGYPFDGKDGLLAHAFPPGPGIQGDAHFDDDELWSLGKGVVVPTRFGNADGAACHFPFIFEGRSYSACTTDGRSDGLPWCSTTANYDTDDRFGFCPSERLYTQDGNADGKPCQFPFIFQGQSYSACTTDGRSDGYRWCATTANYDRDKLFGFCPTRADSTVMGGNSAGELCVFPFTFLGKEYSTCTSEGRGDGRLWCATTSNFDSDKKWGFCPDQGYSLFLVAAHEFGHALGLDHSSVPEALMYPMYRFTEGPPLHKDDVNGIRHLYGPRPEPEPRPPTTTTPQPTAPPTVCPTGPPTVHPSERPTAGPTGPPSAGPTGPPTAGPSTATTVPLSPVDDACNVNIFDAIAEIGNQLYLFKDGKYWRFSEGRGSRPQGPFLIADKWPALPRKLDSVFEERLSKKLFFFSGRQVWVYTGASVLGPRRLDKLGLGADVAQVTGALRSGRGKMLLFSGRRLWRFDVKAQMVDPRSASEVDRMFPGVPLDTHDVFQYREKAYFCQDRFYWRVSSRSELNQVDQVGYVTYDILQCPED

Row | IC50 [1] [µM] | IC50 [2] [µM] | IC50 [3] [µM] | IC50 [4] [µM] | IC50 [5] [µM] | IC50 [6] [µM] | SMILES
1 | > 30 | > 100 | > 30 | > 30 | 0.155 | > 30 | COc1ccc(CNC(=O)c2ccc3c(c2)S(=O)(=O)N(Cc2ccc(C(N)=O)cc2)C(=O)N3C)cc1 [Example 14, 2-(4-Carbamoyl-benzyl)-4-methyl-1,1,3-trioxo-1,2,3,4-tetrahydro-1l^6-benzo[1,2,4]thiadiazine-7-carboxylic acid 4-methoxy-benzylamide]
2 | > 100 | > 100 | > 30 | > 30 | 0.345 | > 30 | CN1C(=O)N(Cc2ccccc2)S(=O)(=O)c2cc(C(=O)NCc3ccc(F)cc3)ccc21 [Example 16, 2-Benzyl-4-methyl-1,1,3-trioxo-1,2,3,4-tetrahydro-1l^6-benzo[1,2,4]thiadiazine-7-carboxylic acid 4-fluoro-benzylamide]
3 | > 30 | 10 | > 30 | > 30 | 0.31 | > 30 | CNS(=O)(=O)c1ccc(CN2C(=O)N(C)c3ccc(C(=O)NCc4ccc(OC)cc4)cc3S2(=O)=O)cc1 [Example 18, 4-Methyl-2-(4-methylsulfamoyl-benzyl)-1,1,3-trioxo-1,2,3,4-tetrahydro-1l^6-benzo[1,2,4]thiadiazine-7-carboxylic acid 4-methoxy-benzylamide]
4 | > 30 | 11 | > 30 | > 30 | 0.23 | > 30 | COc1ccc(CNC(=O)c2ccc3c(c2)S(=O)(=O)N(Cc2ccc(S(=O)(=O)N4CCOCC4)cc2)C(=O)N3C)cc1 [Example 19, 4-Methyl-2-[4-(morpholine-4-sulfonyl)-benzyl]-1,1,3-trioxo-1,2,3,4-tetrahydro-1l^6-benzo[1,2,4]thiadiazine-7-carboxylic acid 4-methoxy-benzylamide]
5 | > 30 | > 30 | > 30 | 10 | 0.385 | > 30 | COC(=O)c1ccc(CN2C(=O)N(C)c3ccc(C(=O)NCc4ccc(F)cc4)cc3S2(=O)=O)cc1 [Example 20, 4-[7-(4-Fluoro-benzylcarbamoyl)-4-methyl-1,1,3-trioxo-3,4-dihydro-1H-1l^6-benzo[1,2,4]thiadiazin-2-ylmethyl]-benzoic Acid Methyl Ester]
6 | > 30 | > 30 | > 30 | > 30 | 0.155 | > 100 | COc1cc(CNC(=O)c2ccc3c(c2)S(=O)(=O)N(Cc2ccccc2)C(=O)N3C)ccn1 [Example 21, 2-Benzyl-4-methyl-1,1,3-trioxo-1,2,3,4-tetrahydro-1l^6-benzo[1,2,4]thiadiazine-7-carboxylic acid (2-methoxy-pyridin-4-ylmethyl)-amide]
7 | > 30 | > 30 | > 30 | > 30 | 0.62 | > 30 | COc1ccc(CNC(=O)c2ccc3c(c2)S(=O)(=O)N(Cc2ccc4ccccc4c2)C(=O)N3C)cc1 [Example 22, 4-Methyl-2-naphthalen-2-ylmethyl-1,1,3-trioxo-1,2,3,4-tetrahydro-1l^6-benzo[1,2,4]thiadiazine-7-carboxylic acid 4-methoxy-benzylamide]
8 | > 30 | 13 | > 30 | > 30 | 0.125 | > 30 | CN1C(=O)N(Cc2ccccc2)S(=O)(=O)c2cc(C(=O)NCc3ccc4nsnc4c3)ccc21 [Example 24, 2-Benzyl-4-methyl-1,1,3-trioxo-1,2,3,4-tetrahydro-1l^6-benzo[1,2,4]thiadiazine-7-carboxylic acid (2,1,3-benzothiadiazol-5-ylmethyl)-amide]
9 | > 100 | > 30 | > 100 | > 100 | 0.019 | > 100 | CN1C(=O)N(Cc2ccc(C(=O)O)cc2)S(=O)(=O)c2cc(C(=O)NCc3ccc(F)cc3)ccc21 [Example 25, 4-[7-(4-Fluoro-benzylcarbamoyl)-4-methyl-1,1,3-trioxo-3,4-dihydro-1H-1l^6-benzo[1,2,4]thiadiazin-2-ylmethyl]-benzoic Acid]
10 | > 30 | 10 | > 30 | > 30 | 0.29 | > 30 | COc1ccc(CNC(=O)c2ccc3c(c2)S(=O)(=O)N(Cc2ccc(C(=O)N4CCCCC4)cc2)C(=O)N3C)cc1 [Example 27, 4-Methyl-1,1,3-trioxo-2-[4-(piperidine-1-carbonyl)-benzyl]-1,2,3,4-tetrahydro-1l^6-benzo[1,2,4]thiadiazine-7-carboxylic acid 4-methoxy-benzylamide]
11 | > 100 | > 30 | > 100 | > 100 | 0.25 | > 100 | COc1ccc(CNC(=O)c2ccc3c(c2)S(=O)(=O)N(Cc2ccc(C(=O)NC(C(=O)O)C(C)C)cc2)C(=O)N3C)cc1 (stereo not drawn) [Example 28, 2-{4-[7-(4-Methoxy-benzylcarbamoyl)-4-methyl-1,1,3-trioxo-3,4-dihydro-1l^6-benzo[1,2,4]thiadiazin-2-ylmethyl]-benzoylamino}-3-methyl-butyric Acid]
12 | > 30 | 9.4 | > 30 | > 30 | 0.13 | > 30 | COc1ccc(CNC(=O)c2ccc3c(c2)S(=O)(=O)N(Cc2ccc(C#N)cc2)C(=O)N3C)cc1 [Example 29, 2-(4-Cyano-benzyl)-4-methyl-1,1,3-trioxo-1,2,3,4-tetrahydro-1l^6-benzo[1,2,4]thiadiazine-7-carboxylic acid 4-methoxy-benzylamide]
13 | > 100 | > 30 | 82 | > 100 | 0.0355 | > 100 | COc1ccc(CNC(=O)c2ccc3c(c2)S(=O)(=O)N(Cc2ccc(CC(=O)O)cc2)C(=O)N3C)cc1 [Example 30, {4-[7-(4-Methoxy-benzylcarbamoyl)-4-methyl-1,1,3-trioxo-3,4-dihydro-1H-1l^6-benzo[1,2,4]thiadiazin-2-ylmethyl]-phenyl}-acetic Acid]
14 | > 100 | > 30 | > 30 | > 100 | 0.00485 | > 100 | COc1cccc(CNC(=O)c2ccc3c(c2)S(=O)(=O)N(Cc2ccc(C(=O)O)cc2)C(=O)N3C)c1 [Example 31, 4-[7-(3-Methoxy-benzylcarbamoyl)-4-methyl-1,1,3-trioxo-3,4-dihydro-1H-1l^6-benzo[1,2,4]thiadiazin-2-ylmethyl]-benzoic Acid]
15 | > 100 | 15 | > 30 | > 100 | 0.0062 | > 100 | COc1ccc(CNC(=O)c2ccc3c(c2)S(=O)(=O)N(Cc2ccc(-c4nn[nH]n4)cc2)C(=O)N3C)cc1 [Example 32, 4-Methyl-1,1,3-trioxo-2-[4-(2H-tetrazol-5-yl)-benzyl]-1,2,3,4-tetrahydro-1l^6-benzo[1,2,4]thiadiazine-7-carboxylic acid 4-methoxy-benzylamide]
16 | > 30 | > 100 | > 30 | > 30 | 0.0625 | > 30 | COc1cccc(CNC(=O)c2ccc3c(c2)S(=O)(=O)N(Cc2ccccc2)C(=O)N3C)c1 [Example 34, 2-Benzyl-4-methyl-1,1,3-trioxo-1,2,3,4-tetrahydro-1l^6-benzo[1,2,4]thiadiazine-7-carboxylic acid 3-methoxy-benzylamide]
